The source of these data is ChEMBL document CHEMBL3045018, “Comparative QSTR study of saturated alcohols based on topological, constitutional, geometrical, and getaway descriptors” (Med Chem Res, 2009).

SMILES strings stand for the structures.

This series relates to Tetrahymena pyriformis. The series can be described thus: Toxicity in Tetrahymena pyriformis. The following applies: in vivo.
`OCCCl` [2-CHLOROETHANOL] gave a negative logarithm of the GI50 (pGI50) of 1.5343.

As for `CCCC(C)O` (stereo not given) [2-PENTANOL], the negative-log GI50 (pGI50) stood at 1.1596.

`CC(O)CCl` (stereo not given) had a negative logarithm of the GI50 (pGI50) of 1.2446.

With `CC(C)(C)O` [TERT-BUTANOL], the negative-log GI50 (pGI50) came out at 1.7911.

Consider `CCO` [ALCOHOL], for which the pGI50 was 1.9912.

In turn, `OCCCCl` [3-Chloropropanol] had a negative-log GI50 (pGI50) of 1.1622.

`CC(C)CO` [ISOBUTANOL] returned a pGI50 of 1.3724.

Consider `CCC(C)O` (stereo not given) [BUTANOL], for which the negative-log GI50 (pGI50) was found to be 1.542.

Regarding `CCC(O)CC` [3-PENTANOL], the pGI50 was determined as 1.2437.

`CC(C)O` [ISOPROPYL ALCOHOL]: the negative-log GI50 (pGI50) came to 1.8819.

`CCCO` [PROPANOL] came in with a negative-log GI50 (pGI50) of 1.7464.

`CO` [METHYL ALCOHOL] showed a negative logarithm of the GI50 (pGI50) of 2.6656.

`CC(C)CCO` [3-METHYLBUTANOL] displayed a negative logarithm of the GI50 (pGI50) of 1.0359.

On to `CCC(C)(C)O` [AMYLENE HYDRATE], for which the pGI50 came to 1.1729.

On to `CCCCO` [BUTYL ALCOHOL], for which the negative logarithm of the GI50 (pGI50) was determined as 1.4306.

Broadly, the pGI50 is −log10 of the GI50, conventionally taken in molar units.
